Reference: patent US9850247B2 (Almac Discovery Limited, priority 2013, dated 2017)

Legend:
[1] = CLint estimates using human liver microsomes (Method 4); format: in vitro ADME; conditions: pH 7.4, 1 μM compound, read-out: Mics - CLint (HLM CLint)
Summary of the method: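 Depletion measured by LC/MS/MS in MRM mode over 2–50 min after starting reactions with 1 mM NADPH. Incubations used 0.5 mg/mL human liver microsomal protein, 1 μM compound, 0.1% DMSO, pH 7.4 phosphate buffer, 37 °C. ln peak area plotted against time; the gradient gave t½ and intrinsic clearance.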

[2] = test system: phospho-cdc2 (Tyr15) in HT-29 cells; experiment: Effect on Cdc2 phosphorylation at Tyr15, Cell-Based ELISA Base Kit (Method 3); conditions: Homo sapiens, HT-29, 8 h, eight hours incubation, normalized to total cdc2, read-out: HT29 pCDC2 method 3
Summary of the method: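 HT-29 cells were treated with compounds for 8 h at 37 °C, then fixed in 4% formaldehyde. Phospho-cdc2 (Tyr15) and total cdc2 were read by dual-fluorogenic cell-based ELISA at 600/450 nm. Phospho signal was normalized to total cdc2 and expressed as % of DMSO control, and EC50 came from non-linear regression.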

Row | Compound | microsomal CLint at 1 μM [1] | EC50 [2]
1 | C[C@@H]1CN(c2ccc(Nc3ncc4c(n3)N(C)CN(c3c(Cl)cccc3Cl)C4=O)cc2F)CCN1 [Example 43, (R)-3-(2,6-dichlorophenyl)-7-((3-fluoro-4-(3-methylpiperazin-1-yl)phenyl)amino)-1-methyl-2,3-dihydropyrimido[4,5-d]pyrimidin-4(1H)-one] | ≤ 15 µL/min/mg | 100 to 1000 nM
2 | CN1CN(c2c(Cl)cccc2Cl)C(=O)c2cnc(Nc3ccc(N4CC5CCC(C4)N5C)c(CO)c3)nc21 [Example 86, 3-(2,6-dichlorophenyl)-7-((3-(hydroxymethyl)-4-(8-methyl-3,8-diazabicyclo[3.2.1]octan-3-yl)phenyl)amino)-1-methyl-2,3-dihydropyrimido[4,5-d]pyrimidin-4(1H)-one] | ≤ 15 µL/min/mg | 100 to 1000 nM
3 | CC(C)N1CCN(c2ccc(Nc3ncc4c(n3)N(C)CN(c3c(Cl)cccc3Cl)C4=O)cc2CO)CC1 [Example 21, 3-(2,6-Dichlorophenyl)-7-((3-(hydroxymethyl)-4-(4-isopropylpiperazin-1-yl)phenyl)amino)-1-methyl-2,3-dihydropyrimido[4,5-d]pyrimidin-4(1H)-one] | 15 to 50 µL/min/mg | 100 to 1000 nM
4 | COC[C@H]1CN(c2ccc(Nc3ncc4c(n3)N(C)CN(c3c(Cl)cccc3Cl)C4=O)cc2)CCN1 [Example 60, (R)-3-(2,6-dichlorophenyl)-7-((4-(3-(methoxymethyl)piperazin-1-yl)phenyl)amino)-1-methyl-2,3-dihydropyrimido[4,5-d]pyrimidin-4(1H)-one] | ≤ 15 µL/min/mg | 100 to 1000 nM
5 | [2H]C1([2H])N(C)c2nc(Nc3ccc(N4CCNCC4)cc3)ncc2C(=O)N1c1c(Cl)cccc1Cl [Example 15, 3-(2,6-Dichlorophenyl)-2,2-dideutero-1-methyl-7-((4-(piperazin-1-yl)phenyl)amino)-2,3-dihydropyrimido[4,5-d]pyrimidin-4(1H)-one] | ≤ 15 µL/min/mg | 100 to 1000 nM
6 | CN1CN(c2c(F)cccc2Cl)C(=O)c2cnc(Nc3ccc(N4CCNCC4)cc3)nc21 [Example 25, 3-(2-Chloro-6-fluorophenyl)-1-methyl-7-((4-(piperazin-1-yl)phenyl)amino)-2,3-dihydropyrimido[4,5-d]pyrimidin-4(1H)-one] | ≤ 15 µL/min/mg | 100 to 1000 nM
7 | CN1CN(c2c(Cl)cccc2Cl)C(=O)c2cnc(Nc3ccc(N4CCN[C@@H](CO)C4)cc3)nc21 [Example 19, (R)-3-(2,6-Dichlorophenyl)-7-((4-(3-(hydroxymethyl)piperazin-1-yl)phenyl)amino)-1-methyl-2,3-dihydropyrimido[4,5-d]pyrimidin-4(1H)-one] | ≤ 15 µL/min/mg | 100 to 1000 nM
8 | C[C@@H]1CN(c2ccc(Nc3ncc4c(n3)N(C)CN(c3c(Cl)cccc3Cl)C4=O)cc2)[C@@H](C)CN1 [Example 80, 3-(2,6-dichlorophenyl)-7-((4-((2S,5R)-2,5-dimethylpiperazin-1-yl)phenyl)amino)-1-methyl-2,3-dihydropyrimido[4,5-d]pyrimidin-4(1H)-one] | 15 to 50 µL/min/mg | 100 to 1000 nM
9 | CN1CN(c2c(Cl)cccc2Cl)C(=O)c2cnc(Nc3ccc4c(c3)CNCC4)nc21 [Example 14, 3-(2,6-Dichlorophenyl)-1-methyl-7-((1,2,3,4-tetrahydroisoquinolin-7-yl)amino)-2,3-dihydropyrimido[4,5-d]pyrimidin-4(1H)-one] | ≤ 15 µL/min/mg | 100 to 1000 nM
10 | COCc1cc(Nc2ncc3c(n2)N(C)CN(c2c(Cl)cccc2Cl)C3=O)ccc1N1CCNCC1 [Example 31, 3-(2,6-dichlorophenyl)-7-((3-(methoxymethyl)-4-(piperazin-1-yl)phenyl)amino)-1-methyl-2,3-dihydropyrimido[4,5-d]pyrimidin-4(1H)-one] | ≤ 15 µL/min/mg | 100 to 1000 nM
11 | CN1CN(c2c(Cl)cccc2Cl)C(=O)c2cnc(Nc3ccc(N4CC5CCC(C4)N5)cc3)nc21 [Example 74, 7-((4-(3,8-diazabicyclo[3.2.1]octan-3-yl)phenyl)amino)-3-(2,6-dichlorophenyl)-1-methyl-2,3-dihydropyrimido [4,5-d]pyrimidin-4(1H)-one] | ≤ 15 µL/min/mg | 100 to 1000 nM
12 | COc1cc(Nc2ncc3c(n2)N(C)CN(c2c(Cl)cccc2Cl)C3=O)ccc1N1CCNCC1 [Example 3, 3-(2,6-Dichlorophenyl)-7-((3-methoxy-4-(piperazin-1-yl)phenyl)amino)-1-methyl-2,3-dihydropyrimido[4,5-d]pyrimidin-4(1H)-one] | 15 to 50 µL/min/mg | 100 to 1000 nM
13 | Cc1cc(Nc2ncc3c(n2)N(C)CN(c2c(Cl)cccc2Cl)C3=O)ccc1N1CCNCC1 [Example 6, 3-(2,6-Dichlorophenyl)-1-methyl-7-((3-methyl-4-(piperazin-1-yl)phenyl)amino)-2,3-dihydropyrimido[4,5-d]pyrimidin-4(1H)-one] | 15 to 50 µL/min/mg | 100 to 1000 nM
14 | C[C@@H]1CN(c2ccc(Nc3ncc4c(n3)N(C)CN(c3c(F)cccc3Cl)C4=O)cc2)CCN1 [Example 53, (R)-3-(2-chloro-6-fluorophenyl)-1-methyl-7-((4-(3-methylpiperazin-1-yl)phenyl)amino)-2,3-dihydropyrimido[4,5-d]pyrimidin-4(1H)-one] | ≤ 15 µL/min/mg | 100 to 1000 nM
15 | C[C@H]1CN(c2ccc(Nc3ncc4c(n3)N(C)CN(c3c(Cl)cccc3Cl)C4=O)cc2)CCN1 [Example 17, (S)-3-(2,6-Dichlorophenyl)-1-methyl-7-((4-(3-methylpiperazin-1-yl)phenyl)amino)-2,3-dihydropyrimido[4,5-d]pyrimidin-4(1H)-one] | 15 to 50 µL/min/mg | 100 to 1000 nM
16 | CNCc1cc(Nc2ncc3c(n2)N(C)CN(c2c(Cl)cccc2Cl)C3=O)ccc1N1CCOCC1 [Example 5, 3-(2,6-Dichlorophenyl)-1-methyl-7-((3-((methylamino)methyl)-4-morpholinophenyl)amino)-2,3-dihydropyrimido[4,5-d]pyrimidin-4(1H)-one] | ≤ 15 µL/min/mg | 100 to 1000 nM

More lines, main results first:

Row | microsomal CLint at 1 μM [1] | Compound | EC50 [2]
17 | 15 to 50 µL/min/mg | CN1CN(c2c(Cl)cccc2Cl)C(=O)c2cnc(Nc3ccc(N4CCNCC4)cc3)nc21 [Example 1, 3-(2,6-Dichlorophenyl)-1-methyl-7-((4-(piperazin-1-yl)phenyl)amino)-2,3-dihydropyrimido[4,5-d]pyrimidin-4(1H)-one] | 100 to 1000 nM
18 | ≤ 15 µL/min/mg | CN1CN(c2c(Cl)cccc2Cl)C(=O)c2cnc(Nc3ccc(N4CCN(C(=O)CN)CC4)cc3)nc21 [Example 13, 7-((4-(4-(2-Aminoacetyl)piperazin-1-yl)phenyl)amino)-3-(2,6-dichlorophenyl)-1-methyl-2,3-dihydropyrimido[4,5-d]pyrimidin-4(1H)-one] | 100 to 1000 nM
19 | ≤ 15 µL/min/mg | Cc1cc(Nc2ncc3c(n2)N(C)CN(c2c(Cl)cccc2Cl)C3=O)ccc1C1CCNCC1 [Example 18, 3-(2,6-Dichlorophenyl)-1-methyl-7-((3-methyl-4-(piperidin-4-yl)phenyl)amino)-2,3-dihydropyrimido[4,5-d]pyrimidin-4(1H)-one] | 100 to 1000 nM
20 | ≤ 15 µL/min/mg | CNCCOc1ccc(Nc2ncc3c(n2)N(C)CN(c2c(Cl)cccc2Cl)C3=O)cc1 [Example 2, 3-(2,6-Dichlorophenyl)-1-methyl-7-((4-(2-(methylamino)ethoxy)phenyl)amino)-2,3-dihydropyrimido[4,5-d]pyrimidin-4(1H)-one] | 100 to 1000 nM
21 | ≤ 15 µL/min/mg | CN1CN(c2c(Cl)cccc2Cl)C(=O)c2cnc(Nc3ccc(N4CCNCC4)c(C#N)c3)nc21 [Example 11, 3-(2,6-Dichlorophenyl)-7-((3-cyano-4-(piperazin-1-yl)phenyl)amino)-1-methyl-2,3-dihydropyrimido[4,5-d]pyrimidin-4(1H)-one] | 100 to 1000 nM
22 | ≤ 15 µL/min/mg | C[C@@H]1CN(c2ccc(Nc3ncc4c(n3)N(C)CN(c3c(Cl)cccc3Cl)C4=O)cc2)CCN1 [Example 16, (R)-3-(2,6-Dichlorophenyl)-1-methyl-7-((4-(3-methylpiperazin-1-yl)phenyl)amino)-2,3-dihydropyrimido[4,5-d]pyrimidin-4(1H)-one] | 100 to 1000 nM
23 | 15 to 50 µL/min/mg | CN1CCc2ccc(Nc3ncc4c(n3)N(C)CN(c3c(Cl)cccc3Cl)C4=O)cc2C1 [Example 22, 3-(2,6-Dichlorophenyl)-1-methyl-7-((2-methyl-1,2,3,4-tetrahydroisoquinolin-7-yl)amino)-2,3-dihydropyrimido[4,5-d]pyrimidin-4(1H)-one] | 100 to 1000 nM
24 | ≤ 15 µL/min/mg | C[C@@H]1CN[C@@H](C)CN1c1ccc(Nc2ncc3c(n2)N(C)CN(c2c(Cl)cccc2Cl)C3=O)cc1 [Example 40, 3-(2,6-dichlorophenyl)-7-((4-((2R,5S)-2,5-dimethylpiperazin-1-yl)phenyl)amino)-1-methyl-2,3-dihydropyrimido[4,5-d]pyrimidin-4(1H)-one] | 100 to 1000 nM
25 | ≤ 15 µL/min/mg | COCc1cc(Nc2ncc3c(n2)N(C)CN(c2c(Cl)cccc2Cl)C3=O)ccc1N1CCN[C@H](C)C1 [Example 59, (R)-3-(2,6-dichlorophenyl)-7-((3-(methoxymethyl)-4-(3-methylpiperazin-1-yl)phenyl)amino)-1-methyl-2,3-dihydropyrimido[4,5-d]pyrimidin-4(1H)-one] | 100 to 1000 nM
